For the assay, the target named is SMARCA2 (Homo sapiens, UniProt P51531). Description: MSD SMARCA2 degradation in NCI-H1299 cell line (24 h). The assay is classed as cell-based. On the set-up: HC: NCI-H1299 cells treated with DMSO; host or cells: NCI-H1299. The note with it: for DC50: read-out: SMARCA2 MSD H1299 degradation 24 h: External Abs-DC50; for Dmax: NCI-H1299, NCI-H1299 cells. The method, boiled down: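 SMARCA2 measured by MSD electrochemiluminescence (primary 0.3 ug/ml, secondary 1 ug/ml) on lysates from NCI-H1299 cells exposed to compounds for 24 h across nine 3-fold dilutions. Signal scaled from A2780 cells (no SMARCA2) to DMSO-treated H1299 controls, and maximal degradation after 24 h reported in letter categories.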

Some results are limits rather than exact numbers.

Consider six molecules from US12624044B2, “SMARCA degraders and uses thereof” (Kymera Therapeutics, Inc., priority 2019, dated 2026).

SMARCA2, sequence (P51531 whole entry): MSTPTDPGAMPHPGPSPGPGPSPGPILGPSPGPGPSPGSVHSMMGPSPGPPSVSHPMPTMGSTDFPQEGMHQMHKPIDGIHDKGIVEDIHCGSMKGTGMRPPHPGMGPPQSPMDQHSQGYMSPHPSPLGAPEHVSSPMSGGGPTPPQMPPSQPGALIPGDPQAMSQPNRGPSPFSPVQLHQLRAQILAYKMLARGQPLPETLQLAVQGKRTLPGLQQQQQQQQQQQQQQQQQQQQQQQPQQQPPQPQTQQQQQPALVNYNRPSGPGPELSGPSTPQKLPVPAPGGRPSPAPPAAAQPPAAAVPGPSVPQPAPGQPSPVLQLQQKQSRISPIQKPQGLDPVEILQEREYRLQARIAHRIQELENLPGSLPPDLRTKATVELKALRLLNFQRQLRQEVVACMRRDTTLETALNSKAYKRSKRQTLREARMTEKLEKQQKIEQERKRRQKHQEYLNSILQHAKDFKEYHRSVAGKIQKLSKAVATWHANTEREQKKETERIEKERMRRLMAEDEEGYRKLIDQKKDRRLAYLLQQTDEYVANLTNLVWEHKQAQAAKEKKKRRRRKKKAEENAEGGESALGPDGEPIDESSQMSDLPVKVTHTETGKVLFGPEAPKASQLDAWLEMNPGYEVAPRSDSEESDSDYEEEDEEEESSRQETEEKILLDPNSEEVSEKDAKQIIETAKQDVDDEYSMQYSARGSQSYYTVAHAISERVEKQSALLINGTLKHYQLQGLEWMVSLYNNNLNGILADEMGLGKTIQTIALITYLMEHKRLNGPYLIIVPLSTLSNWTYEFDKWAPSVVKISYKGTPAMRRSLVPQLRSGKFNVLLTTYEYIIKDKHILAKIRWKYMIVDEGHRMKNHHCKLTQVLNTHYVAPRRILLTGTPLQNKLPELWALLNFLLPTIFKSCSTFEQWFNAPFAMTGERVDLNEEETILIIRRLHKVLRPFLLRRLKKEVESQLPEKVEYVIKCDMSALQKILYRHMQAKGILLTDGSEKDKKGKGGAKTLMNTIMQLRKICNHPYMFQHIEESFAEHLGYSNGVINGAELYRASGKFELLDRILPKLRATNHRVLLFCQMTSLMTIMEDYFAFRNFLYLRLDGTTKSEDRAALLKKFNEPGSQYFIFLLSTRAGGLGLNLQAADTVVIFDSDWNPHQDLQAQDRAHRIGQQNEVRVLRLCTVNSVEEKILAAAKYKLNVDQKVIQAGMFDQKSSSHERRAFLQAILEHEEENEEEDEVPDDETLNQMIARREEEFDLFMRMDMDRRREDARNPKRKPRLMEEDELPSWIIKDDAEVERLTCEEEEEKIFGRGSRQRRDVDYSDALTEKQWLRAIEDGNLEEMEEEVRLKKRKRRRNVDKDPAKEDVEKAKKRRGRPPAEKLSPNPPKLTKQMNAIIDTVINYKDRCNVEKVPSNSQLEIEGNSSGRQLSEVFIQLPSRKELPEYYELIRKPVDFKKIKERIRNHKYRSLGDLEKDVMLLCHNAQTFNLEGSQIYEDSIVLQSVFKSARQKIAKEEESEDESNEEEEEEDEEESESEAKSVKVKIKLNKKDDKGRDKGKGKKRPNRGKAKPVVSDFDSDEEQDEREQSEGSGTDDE

The DC50 is the concentration at which degradation of the target reaches its halfway point. Consider `Cc1ncsc1-c1ccc(CNC(=O)[C@@H]2C[C@@H](O)CN2C(=O)[C@@H](NC(=O)[C@H]2CC3(C2)C[C@H](N2CCC(n4cc(-c5cc(-c6ccccc6O)nnc5N)cn4)CC2)C3)C(C)(C)C)cc1` (some centres unmarked) [I-389], for which, for the setting “NCI-H1299 cells”, the “SMARCA2 MSD H1299 degradation 24 h: Dmax %” value was “A (A (>90% degradation))” and the DC50 is 100 to 500 nM.
By Dmax is commonly meant the largest share of the target that was removed. Low readings indicate a partial loss of target, high ones a fuller loss of target. For `Cc1ncsc1-c1ccc(CNC(=O)[C@@H]2C[C@@H](O)CN2C(=O)[C@@H](NC(=O)[C@H]2CC[C@H](c3cnc(N4C5CCC4CN(c4cc(-c6ccccc6O)nnc4N)C5)nc3)CC2)C(C)(C)C)cc1` [I-337, (2S,4R)-1-((2S)-2-((1r,4S)-4-(2-(3-(3-amino-6-(2-hydroxyphenyl)pyridazin-4-yl)-3,8-diazabicyclo[3.2.1]octan-8-yl)pyrimidin-5-yl)cyclohexanecarboxamido)-3,3-dimethylbutanoyl)-4-hydroxy-N-(4-(4-methylthiazol-5-yl)benzyl)pyrrolidine-2-carboxamide], the Dmax is greater than 90%. The 50% degradation concentration (DC50) (NCI-H1299 cells) is less than 100 nM.
For `Cn1c(=O)n(C2CCC(=O)NC2=O)c2ccc(CCCCCCCc3nccc(N4C5CCC4CN(c4cc(-c6ccccc6O)nnc4N)C5)n3)cc21` (centres unmarked) [I-287, 3-(5-(7-(4-(3-(3-amino-6-(2-hydroxyphenyl)pyridazin-4-yl)-3,8-diazabicyclo[3.2.1]octan-8-yl)pyrimidin-2-yl)heptyl)-3-methyl-2-oxo-2,3-dihydro-1H-benzo[d]imidazol-1-yl)piperidine-2,6-dione], in that order: greater than 90% and 100 to 500 nM.
As for `Cc1ncsc1-c1ccc(CNC(=O)[C@@H]2C[C@@H](O)CN2C(=O)[C@@H](NC(=O)[C@H]2CC[C@@H](c3cnc(N4C5CCC4CN(c4cc(-c6ccccc6O)nnc4N)C5)nc3)CC2)C(C)(C)C)cc1` [I-336], the DC50 (NCI-H1299 cells) was less than 100 nM.
Take `Cc1ncsc1-c1ccc(CNC(=O)[C@@H]2C[C@@H](O)CN2C(=O)[C@@H](NC(=O)[C@H]2CC[C@H](CN3CCC(n4cc(-c5cc(-c6ccccc6O)nnc5N)cn4)CC3)CC2)C(C)(C)C)cc1` [I-403]: the Dmax is greater than 90%. Moreover, under “NCI-H1299 cells”, the half-maximal degradation concentration (DC50) was 100 to 500 nM.
With `Cc1ncsc1-c1ccc(CNC(=O)[C@@H]2C[C@@H](O)CN2C(=O)[C@@H](NC(=O)[C@H]2CC[C@@H](CN3CCC(n4cc(-c5cc(-c6ccccc6O)nnc5N)cn4)CC3)CC2)C(C)(C)C)cc1` [I-402], the Dmax lay in the range of 70 to 90%. In addition, the 50% degradation concentration (DC50) (NCI-H1299 cells) was in the range of 100 to 500 nM.
